Source: article PMC3813382 (The Journal of General Physiology, 2013)
Changes are numbered by the printed parent chain. Entries after “also recorded” stand apart in the source; their conditions may differ.

How the values were obtained:
F240C Slo2.1 channels = biological target: T1, F240C Slo2.1 channels (Homo sapiens, UniProt Q6UVM3, F240C); test: Activation of ISlo2.1 by NFA, two-electrode voltage clamp in oocytes; format: cell-based
T1 sequence (Q6UVM3 1-1135 F240C): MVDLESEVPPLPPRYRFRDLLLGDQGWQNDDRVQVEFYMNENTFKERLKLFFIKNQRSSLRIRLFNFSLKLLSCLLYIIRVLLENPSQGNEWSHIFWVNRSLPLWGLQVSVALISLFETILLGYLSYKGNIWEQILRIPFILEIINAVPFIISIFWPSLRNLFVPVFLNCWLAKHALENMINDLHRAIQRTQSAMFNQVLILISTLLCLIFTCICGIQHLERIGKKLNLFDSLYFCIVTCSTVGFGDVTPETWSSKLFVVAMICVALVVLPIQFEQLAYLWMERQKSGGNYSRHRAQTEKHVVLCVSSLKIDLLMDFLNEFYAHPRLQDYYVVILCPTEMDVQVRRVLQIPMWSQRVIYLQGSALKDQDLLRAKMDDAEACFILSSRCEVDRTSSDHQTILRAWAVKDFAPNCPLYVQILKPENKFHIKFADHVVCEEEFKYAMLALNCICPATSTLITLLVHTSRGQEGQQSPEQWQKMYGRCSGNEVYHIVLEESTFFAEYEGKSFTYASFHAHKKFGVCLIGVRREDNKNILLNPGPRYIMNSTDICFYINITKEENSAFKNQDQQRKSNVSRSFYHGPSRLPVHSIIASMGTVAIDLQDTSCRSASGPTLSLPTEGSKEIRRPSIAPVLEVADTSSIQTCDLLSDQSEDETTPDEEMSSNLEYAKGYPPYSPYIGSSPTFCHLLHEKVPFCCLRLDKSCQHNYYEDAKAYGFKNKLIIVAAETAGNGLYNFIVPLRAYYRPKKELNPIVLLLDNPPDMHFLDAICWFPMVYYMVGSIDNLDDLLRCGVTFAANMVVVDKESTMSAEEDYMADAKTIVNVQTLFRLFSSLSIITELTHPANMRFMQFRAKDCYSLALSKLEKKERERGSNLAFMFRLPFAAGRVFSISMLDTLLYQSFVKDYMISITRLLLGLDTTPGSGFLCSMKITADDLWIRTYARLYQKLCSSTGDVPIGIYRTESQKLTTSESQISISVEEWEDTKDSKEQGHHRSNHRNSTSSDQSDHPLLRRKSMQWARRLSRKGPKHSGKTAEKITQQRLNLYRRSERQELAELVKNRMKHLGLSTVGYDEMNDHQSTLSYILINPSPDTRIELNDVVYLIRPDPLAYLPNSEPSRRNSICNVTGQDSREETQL

C236A Slo2.1 channels = biological target: T2, C236A Slo2.1 channels (Homo sapiens, UniProt Q6UVM3, C236A); test: as above; format: cell-based; settings: 1 mM NFA, 0 mV
T2 sequence (Q6UVM3 1-1135 C236A): T1 sequence (Q6UVM3 1-1135 F240C) with C236A, C240F

[1] = test system: endogenous currents present in uninjected oocytes; test: Effect of NFA on uninjected oocytes; format: cell-based, Xenopus laevis

activation of F240C currents by NFA (F240C Slo2.1 channels; KCM211 solution ([K^+]e 2 mM)): not further activated by NFA
activation of F240C currents by NFA (F240C Slo2.1 channels; [K^+]e elevated to 104 mM, 1 mM NFA): further activated by 1 mM NFA
response of C236A channels to NFA (C236A Slo2.1 channels): insensitive to 1 mM NFA
SMILES: O=C(O)c1cccnc1Nc1cccc(C(F)(F)F)c1 [NFA, niflumic acid]
effect on endogenous currents in uninjected oocytes ([1]; 1 mM NFA, I-Vt relationships): reduced
effect on endogenous currents in uninjected oocytes ([1]; 6 mM NFA, I-Vt relationships): increased; also recorded: activated a relatively small endogenous current
effect on endogenous currents in uninjected oocytes ([1]; NFA at concentrations up to 1 mM): slightly reduced
